According to patent publication US20160207930A1 (LEO PHARMA A/S, priority 2013, published 2016):

What was measured:
[1] = Hepatic intrinsic clearance following incubation in human liver microsomes; type: in vitro ADME; conditions: 0.5 μM test compound, NADPH, 0-30 min, scaled to g liver
Procedure: Hepatic Extraction Ratio from Hepatic Intrinsic Clearance Following Incubation in Human Liver Microsomes
The general procedure consists of an automated incubation system and LC-MS/MS analysis with human liver microsomes. Human liver microsomes are thawed rapidly in a waterbath at 37° C. and kept on ice until use. The human liver microsomes are diluted with 50 mM potassium phosphate buffer pH 7.4 to a protein concentration of 0.55 mg/mL. Test compounds and positive controls (Verapamil and Dextromethorphan, positive controls for CYP3A4 for CYP2D6 isoforms, respectively) are dissolved in methanol (or other appropriate solvent, if necessary) in order to obtain a 5 mM solution which is further diluted to the concentration of 50 μM. The stock solutions are prepared immediately before the test.
5 μL of 50 μM test compounds and controls are added to 445 μL-of the 0.55 mg/mL microsomes solution and the incubation mixture are pre-warmed at 37° C. for 5 minutes. The incubation reactions are initiated by adding 50 μL of pre-warmed NADPH regenerating system to the incubation mixtures. 50 μL-aliquots will be taken from the incubation mixtures at: 0, 3, 6, 9, 15 and 30 minutes and the reactions are stopped by adding 100 μL of ACN containing Rolipram, used as generic Internal Standard (IS). Samples are then diluted with 120 μL of Milli-Q water and centrifuged at 3000 rpm for 10 minutes, prior the LC-MS/MS analysis.
The integrated peak areas for test compounds at the selected time points are divided by the respective peak areas of the IS and the percent of parent remaining is calculated by normalizing the peak area ratio of parent to IS at 0 min. Observed rate constant (kobs) for parent degradation is calculated by determining the slope of the line of the graph of the natural log of percentage parent remaining versus time of incubation. From the rate of depletion (min−1) and volume of the incubation (mL), clearance is estimated. This is scaled for the protein in the incubation relative to that in the intact liver, for all species (mL/min/g liver).
Values for the Human in vitro Clint are expressed as mL/min/g liver.
Assuming a liver weight of 25.7 g/kg and a liver blood flow of 20.7 mL/min/kg, the hepatic extraction ratio, Eh, can be derived from the Human in vitro Clint:
E.g. a Human in vitro Clint of 2.4 mL/min/g liver corresponds to a hepatic extraction ratio of 75%.
Some compounds of the present invention were tested according to example 101.

NK1 Receptor = target: T1, NK1 Receptor (Homo sapiens, UniProt P25103); assay: NK1 receptor mediated intracellular [Ca2+] mobilization in U251 MG cells using FLIPR; type: cell-based; conditions: antagonism of Substance P (EC80), Fluo-4, read-out: NK1R mediated intracellular [Ca^2+] mobilization IC 50
T1 construct: Measurement of NK1 Receptor Mediated Intracellular [Ca^2+]; Mobilization in U251 MG Cells Using FLIPR; endogenous in cells; host or cells: U251 MG cells
T1 sequence (P25103 whole entry): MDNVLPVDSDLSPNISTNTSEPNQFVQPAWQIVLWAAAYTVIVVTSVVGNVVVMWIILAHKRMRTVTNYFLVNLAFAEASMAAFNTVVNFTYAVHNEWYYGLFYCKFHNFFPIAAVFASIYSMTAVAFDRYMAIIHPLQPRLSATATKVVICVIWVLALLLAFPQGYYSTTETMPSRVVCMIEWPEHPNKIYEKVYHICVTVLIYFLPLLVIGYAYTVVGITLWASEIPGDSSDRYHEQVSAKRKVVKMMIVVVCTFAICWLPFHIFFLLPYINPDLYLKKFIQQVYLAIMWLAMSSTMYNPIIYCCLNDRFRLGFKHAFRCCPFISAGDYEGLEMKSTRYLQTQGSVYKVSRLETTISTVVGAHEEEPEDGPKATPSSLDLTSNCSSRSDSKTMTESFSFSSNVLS
Procedure: Measurement of NK1 Receptor Mediated Intracellular [Ca^2+] Mobilization in U251 MG Cells Using FLIPR
U251 MG cells were seeded into black walled clear-bottom 384-well plates (Greiner Bio-One GmbH, Frickenhausen, Germany) at a density of 15,000 cells/well in 50 μl culture medium and cultured overnight in a 37° C. 5% CO2 incubator. The cells were then loaded with the calcium sensitive dye Fluo-4 (Invitrogen) at 1 μM in buffer, containing 0.04% Pluronic F-127 (Sigma-Aldrich), and 2.5 mM probenecid (Sigma-Aldrich) for 60 min in a humidified atmosphere of 5% CO2. Thereafter, cells were washed three times in washing buffer containing 20 mM HEPES and 2.5 mM probenecid pH 7.3. Serial dilutions of test compounds in assay buffer containing 2% dimethyl sulfoxide (final concentration in the cell plate is 0.5% DMSO) and/or agonist were then automatically pipetted into each test well, and the peak fluorescence intensity was recorded (lex, 488 nm; lem, 540 nm) by the FLIPR instrument (Molecular Devices) for approximately 5 min. To measure antagonist potency, cell plates were first incubated with the test compound and intracellular fluorescence recorded for 5 minutes to check a potential agonist effect of the test compound. Cell plates were quickly removed from the FLIPR instrument and incubated for additional 10 minutes at 37° C. before being moved back to the FLIPR instrument for Substance P (EC80) addition. The response was measured as the peak relative fluorescence change after agonist addition.
Compound relative %-effect was normalized to the maximal response evoked by 100 nM Aprepitant in presence of the EC80 of Substance P and the antagonist potency determined by non-linear regression using GraphPad Prism (version 5) or the four-parameter logistic model in XLfit (IDBS, Guilford, UK) for Microsoft Excel (Microsoft, Redmond, Wash.). The IC50 value is defined as the molar concentration of a test compound that produces a response midway between the fitted top and the fitted bottom. pIC50=−log IC50
Formula is listed as follows:
Fit (% Effect calculated)=(A+((B−A)/(1+((C/X)̂D)))) • A: bottom value • B: top value • C: test compound concentration • X: Relative IC50 • D: Hill slope coefficient
Ref: Sullivan E, Tucker E M, and Dale I L. Measurement of [Ca^2+] using the Fluorometric Imaging Plate Reader (FLIPR). Methods Mol Biol 114:125-133, 1999.
Compounds of the present invention were tested according to example 100.

Row | Structure (SMILES) | Human in vitro Clint [1] [mL/min/g] | IC50 (NK1 Receptor) [nM]
1 | CCc1cc([C@@H](C)N(C)C(=O)N2CCN3C(=O)C(CCO)(CCO)C[C@H]3[C@@H]2c2ccc(O)cc2C)cc(C(F)(F)F)c1 [Compound 31, (1S,8aS)—N—((R)-1-(3-ethyl-5-(trifluoromethyl)phenyl)ethyl)-1-(4-hydroxy-2-methylphenyl)-7,7-bis(2-hydroxyethyl)-N-methyl-6-oxohexahydropyrrolo[1,2-a]pyrazine-2(1H)-carboxamide] | 61 | 0.059
2 | CCc1cc([C@@H](C)N(C)C(=O)N2CCN3C(=O)CC[C@H]3[C@@H]2c2ccccc2C)nc(C(F)(F)F)c1 [Compound 32, (1S,8aS)—N—((R)-1-(4-ethyl-6-(trifluoromethyl)pyridin-2-yl)ethyl)-N-methyl-6-oxo-1-o-tolylhexahydropyrrolo[1,2-a]pyrazine-2(1H)-carboxamide] | >200 | 0.66
3 | Cc1cc(CN(C)C(=O)N2CCN3C(=O)C(CCO)(CCO)C[C@H]3[C@@H]2c2ccccc2C)nc(C(F)(F)F)c1 [Compound 33, (1S,8aS)-7,7-bis(2-hydroxyethyl)-N-methyl-N-((4-methyl-6-(trifluoromethyl)pyridin-2-yl)methyl)-6-oxo-1-o-tolylhexahydropyrrolo[1,2-a]pyrazine-2(1H)-carboxamide] | >200 | 0.139
4 | Cc1ccc([C@H]2[C@@H]3CC(CCO)(CCO)C(=O)N3CCN2C(=O)N(C)[C@H](C)c2cc(Cl)cc(C(F)(F)F)c2)c(C)c1 [Compound 34, (1S,8aS)—N—((R)-1-(3-chloro-5-(trifluoromethyl)phenyl)ethyl)-1-(2,4-dimethylphenyl)-7,7-bis(2-hydroxyethyl)-N-methyl-6-oxo-hexahydropyrrolo[1,2-a]pyrazine-2(1H)-carboxamide] | >200 | 0.054
5 | Cc1ccc([C@H]2[C@@H]3CC(CCO)(CCO)C(=O)N3CCN2C(=O)N(C)[C@H](C)c2cc(C(C)C)cc(C(F)(F)F)c2)c(C)c1 [Compound 35, (1S,8aS)-1-(2,4-dimethylphenyl)-7,7-bis(2-hydroxyethyl)-N—((R)-1-(3-isopropyl-5-(trifluoromethyl)phenyl)ethyl)-N-methyl-6-oxohexahydropyrrolo[1,2-a]pyrazine-2(1H)-carboxamide] | >200 | 0.141
6 | COc1ccccc1[C@H]1[C@@H]2CC(CCO)(CCO)C(=O)N2CCN1C(=O)N(C)[C@H](C)c1cc(C(F)(F)F)cc(C(F)(F)F)c1 [Compound 36, (1S,8aS)—N—((R)-1-(3,5-bis(trifluoromethyl)phenyl)ethyl)-7,7-bis(2-hydroxyethyl)-1-(2-methoxyphenyl)-N-methyl-6-oxo-hexahydropyrrolo[1,2-a]pyrazine-2(1H)-carboxamide] | 147 | 0.811
7 | Cc1ccc(C)c([C@H]2[C@@H]3CC(CCO)(CCO)C(=O)N3CCN2C(=O)N(C)[C@H](C)c2cc(C(F)(F)F)cc(C(F)(F)F)c2)c1 [Compound 37, (1S,8aS)—N—((R)-1-(3,5-bis(trifluoromethyl)phenyl)ethyl)-1-(2,5-dimethylphenyl)-7,7-bis(2-hydroxyethyl)-N-methyl-6-oxo-hexahydropyrrolo[1,2-a]pyrazine-2(1H)-carboxamide] | 30 | 0.08
8 | Cc1ccc(C)c([C@H]2[C@@H]3CC(CCO)(CCO)C(=O)N3CCN2C(=O)N(C)[C@H](C)c2cc(C(C)C)cc(C(F)(F)F)c2)c1 [Compound 38, (1S,8aS)-1-(2,5-dimethylphenyl)-7,7-bis(2-hydroxyethyl)-N—((R)-1-(3-isopropyl-5-(trifluoromethyl)phenyl)ethyl)-N-methyl-6-oxohexahydropyrrolo[1,2-a]pyrazine-2(1H)-carboxamide] | 157 | 0.118
